Source: patent US20210386068A1, “COMPOSITIONS COMPRISING PYRIDINE CARBOXYLATE HERBICIDES AND VERY LONG CHAIN FATTY ACID (VLCFA) SYNTHESIS INHIBITOR HERBICIDES” (priority 2018, published 2021)

Columns and labels:
[1] = system: Kochia scoparia (kochia, KCHSC); assay: Greenhouse postemergence herbicidal effect, visual injury 20-22 d after spraying, kochia (KCHSC); format: in vivo; conditions: Anilofos or Pretilachlor 300 g/ha
Source text: (§1) Seeds of the desired test plant species were planted in a 90:10% v/v (volume/volume) mixture of PRO-MIX® BX (Premier Tech Horticulture, Quakertown, Pa., USA) and PROFILE® GREENS GRADE™ (Profile Products LLC, Buffalo Grove, Ill., USA) planting mixture, which typically has a pH of 5.2 to 6.2 and an organic matter content of at least 50 percent, in plastic pots with a surface area of 103.2 square centimeters (cm^2). In some aspects, to ensure good germination and healthy plants, a fungicide treatment and/or other chemical or physical treatment was applied. The plants were grown for 7-36 days (d) in a greenhouse with an approximate 14-hour (h) photoperiod which was maintained at about 23° C. during the day and 22° C. during the night. Nutrients and water were added on a regular basis and supplemental lighting was provided with overhead metal halide 1000-Watt lamps as necessary. The plants were employed for testing when they reached the second or third true leaf stage.
(§2) Emulsifiable concentrates of each of each pyridine carboxylate herbicide (Compound A or Compound B) were prepared at 100 grams acid equivalent per liter (g ae/L). The emulsifiable concentrates also included a safener, cloquintocet-mexyl, at 120 grams active ingredient per liter (g ai/L). An aliquot of each emulsifiable concentrate was placed in a 25 mL glass vial and diluted with an aqueous mixture of 1.25% (v/v) ACTIROB® B esterified rapeseed oil (Bayer Crop Science, Research Triangle Park, N.C., USA) or MSO® Concentrate with LECI-TECH® methylated soybean oil (Loveland Products, Loveland, Colo., USA) to obtain concentrated stock solutions at the highest application rate for each herbicide, based upon a 12 milliliter (mL) application volume at a rate of 187 liters per hectare (L/ha). The concentrated stock solutions were further diluted with an aqueous mixture of 1.25% v/v ACTIROB® B or MSO® Concentrate with LECI-TECH® to obtain stock solutions at reduced application rates for each herbicide. Spray solutions of the herbicide combinations (Compound A or Compound B plus VLCFA synthesis inhibitor herbicide) were prepared by adding weighed amounts or aliquots of the VLCFA synthesis inhibitor herbicide to the stock solutions of Compound A or Compound B to form 12-mL spray solutions in two-way combinations.
(§3) The spray solutions were applied to the plant material with an overhead Mandel track sprayer equipped with 8002E nozzles calibrated to deliver 187 L/ha over an application area of 0.503 square meters (m^2) at a spray height of 18 inches ([…] (cm)) above the average plant canopy. Control plants were sprayed in the same manner with the solvent blank. All pyridine carboxylate herbicide (component a) application rates are given as “g ae/ha” and all VLCFA synthesis inhibitor herbicide (component b) application rates are given as “g ai/ha.”
(§4) The treated plants and control plants were placed in a greenhouse as described above and watered by sub-irrigation to prevent wash-off of the test compounds. After 20-22 d, the condition of the test plants as compared with that of the control plants was determined visually and scored on a scale of 0 to 100 percent where 0 corresponds to no injury and 100 corresponds to complete kill.

[2] = system: Matricaria chamomilla (wild chamomile, MATCH); assay: Greenhouse postemergence herbicidal effect, visual injury 20-22 d after spraying, wild chamomile (MATCH); format: in vivo; conditions: Anilofos or Pretilachlor 300 g/ha
Source text: as §1, §2, §3, §4

[3] = system: Salsola kali (Russian thistle, SASKR); assay: Greenhouse postemergence herbicidal effect, visual injury 20-22 d after spraying, Russian thistle (SASKR); format: in vivo; conditions: Anilofos or Pretilachlor 300 g/ha
Source text: as §1, §2, §3, §4

[4] = system: Anthemis arvensis (corn chamomile, ANTAR); assay: Greenhouse postemergence herbicidal effect, visual injury 20-22 d after spraying, corn chamomile (ANTAR); format: in vivo; conditions: Anilofos or Pretilachlor 300 g/ha
Source text: as §1, §2, §3, §4

[5] = system: Veronica persica (Persian speedwell, VERPE); assay: Greenhouse postemergence herbicidal effect, visual injury 20-22 d after spraying, Persian speedwell (VERPE); format: in vivo; conditions: Anilofos or Pretilachlor 300 g/ha
Source text: as §1, §2, §3, §4

winter wheat (TRZAW) = assay: Greenhouse postemergence crop phytotoxicity, visual injury 20-22 d after spraying, winter wheat (TRZAW); format: in vivo, Triticum aestivum; conditions: Anilofos or Pretilachlor 300 g/ha
Source text: as §1, §2, §3, §4

[6] = system: Hordeum vulgare (spring barley, HORVS); assay: Greenhouse postemergence crop phytotoxicity, visual injury 20-22 d after spraying, spring barley (HORVS); format: in vivo; conditions: Anilofos or Pretilachlor 300 g/ha
Source text: as §1, §2, §3, §4

[7] = system: Capsella bursa-pastoris (shepherd's purse, CAPBP); assay: Greenhouse postemergence herbicidal effect, visual injury 20-22 d after spraying, shepherd's purse (CAPBP); format: in vivo; conditions: Anilofos or Pretilachlor 300 g/ha
Source text: as §1, §2, §3, §4

[8] = system: Veronica hederifolia (ivy-leaved speedwell, VERHE); assay: Greenhouse postemergence herbicidal effect, visual injury 20-22 d after spraying, ivy-leaved speedwell (VERHE); format: in vivo; conditions: Anilofos or Pretilachlor 300 g/ha
Source text: as §1, §2, §3, §4

[9] = system: Matricaria discoidea (pineapple weed, MATMT); assay: Greenhouse postemergence herbicidal effect, visual injury 20-22 d after spraying, pineapple weed (MATMT); format: in vivo; conditions: Anilofos or Pretilachlor 300 g/ha
Source text: as §1, §2, §3, §4

[10] = system: Polygonum convolvulus (wild buckwheat, POLCO); assay: Greenhouse postemergence herbicidal effect, visual injury 20-22 d after spraying, wild buckwheat (POLCO); format: in vivo; conditions: Anilofos or Pretilachlor 300 g/ha
Source text: as §1, §2, §3, §4

[11] = system: Viola arvensis (field pansy, VIOAR); assay: Greenhouse postemergence herbicidal effect, visual injury 20-22 d after spraying, field pansy (VIOAR); format: in vivo; conditions: Anilofos or Pretilachlor 300 g/ha
Source text: as §1, §2, §3, §4

[12] = system: Cirsium arvense (Canadian thistle, CIRAR); assay: Greenhouse postemergence herbicidal effect, visual injury 20-22 d after spraying, Canadian thistle (CIRAR); format: in vivo; conditions: for % visual injury CIRAR Obs: Anilofos or Pretilachlor 300 g/ha
Source text: as §1, §2, §3, §4

winter barley (HORVW) = assay: Greenhouse postemergence crop phytotoxicity, visual injury 20-22 d after spraying, winter barley (HORVW); format: in vivo, Hordeum vulgare; conditions: Anilofos or Pretilachlor 300 g/ha
Source text: as §1, §2, §3, §4

[13] = system: Viola tricolor (wild pansy, VIOTR); assay: Greenhouse postemergence herbicidal effect, visual injury 20-22 d after spraying, wild pansy (VIOTR); format: in vivo; conditions: for % visual injury VIOTR Obs: Anilofos or Pretilachlor 300 g/ha
Source text: as §1, §2, §3, §4

[14] = system: Stellaria media (common chickweed, STEME); assay: Greenhouse postemergence herbicidal effect, visual injury 20-22 d after spraying, common chickweed (STEME); format: in vivo; conditions: Anilofos or Pretilachlor 300 g/ha
Source text: as §1, §2, §3, §4

[15] = system: Triticum aestivum (spring wheat, TRZAS); assay: Greenhouse postemergence crop phytotoxicity, visual injury 20-22 d after spraying, spring wheat (TRZAS); format: in vivo; conditions: Anilofos or Pretilachlor 300 g/ha
Source text: as §1, §2, §3, §4

[16] = system: Papaver rhoeas (common poppy, PAPRH); assay: Greenhouse postemergence herbicidal effect, visual injury 20-22 d after spraying, common poppy (PAPRH); format: in vivo; conditions: Anilofos or Pretilachlor 300 g/ha
Source text: as §1, §2, §3, §4

[17] = system: Lamium purpureum (purple deadnettle, LAMPU); assay: Greenhouse postemergence herbicidal effect, visual injury 20-22 d after spraying, purple deadnettle (LAMPU); format: in vivo; conditions: Anilofos or Pretilachlor 300 g/ha
Source text: as §1, §2, §3, §4

[18] = system: Sinapis arvensis (wild mustard, SINAR); assay: Greenhouse postemergence herbicidal effect, visual injury 20-22 d after spraying, wild mustard (SINAR); format: in vivo; conditions: Anilofos or Pretilachlor 300 g/ha
Source text: as §1, §2, §3, §4

[19] = system: Cyanus segetum (cornflower, CENCY); assay: Greenhouse postemergence herbicidal effect, visual injury 20-22 d after spraying, cornflower (CENCY); format: in vivo; conditions: Anilofos or Pretilachlor 300 g/ha
Source text: as §1, §2, §3, §4

[20] = system: Matricaria inodora (scentless chamomile, MATIN); assay: Greenhouse postemergence herbicidal effect, visual injury 20-22 d after spraying, scentless chamomile (MATIN); format: in vivo; conditions: Anilofos or Pretilachlor 300 g/ha
Source text: as §1, §2, §3, §4

[21] = system: Brassica napus (winter rape, BRSNW); assay: Greenhouse postemergence herbicidal effect, visual injury 20-22 d after spraying, winter rape (BRSNW); format: in vivo; conditions: Anilofos or Pretilachlor 300 g/ha
Source text: as §1, §2, §3, §4

[22] = system: Helianthus annuus (common sunflower, HELAN); assay: Greenhouse postemergence herbicidal effect, visual injury 20-22 d after spraying, common sunflower (HELAN); format: in vivo; conditions: Flufenacet 60 g/ha alone
Source text: as §1
(§5) Emulsifiable concentrates of each of each pyridine carboxylate herbicide (Compound A or Compound B) were prepared at 100 grams acid equivalent per liter (g ae/L). The emulsifiable concentrates also included a safener, cloquintocet-mexyl, at 120 grams active ingredient per liter (g ai/L). […]
as §4

[23] = system: Amaranthus retroflexus (pigweed, AMARE); assay: Greenhouse postemergence herbicidal effect, visual injury 20-22 d after spraying, pigweed (AMARE); format: in vivo; conditions: Flufenacet 60 g/ha alone
Source text: as §1, §2, §3, §4

[24] = system: Abutilon theophrasti (velvetleaf, ABUTH); assay: Greenhouse postemergence herbicidal effect, visual injury 20-22 d after spraying, velvetleaf (ABUTH); format: in vivo; conditions: Flufenacet 60 g/ha alone
Source text: as §1, §5, §4

[25] = system: Ipomoea hederacea (ivyleaf morningglory, IPOHE); assay: Greenhouse postemergence herbicidal effect, visual injury 20-22 d after spraying, ivyleaf morningglory (IPOHE); format: in vivo; conditions: Flufenacet 60 g/ha alone
Source text: as §1, §5, §4

| Compound | % visual injury KCHSC Obs [1] [%] | % visual injury MATCH Obs [2] [%] | % visual injury SASKR Obs [3] [%] | % visual injury ANTAR Obs [4] [%] | % visual injury TRZAW Obs (winter wheat (TRZAW)) [%] | % visual injury HORVS Obs [6] [%] | % visual injury CAPBP Obs [7] [%] | % visual injury VERHE Obs [8] [%] | % visual injury MATMT Obs [9] [%] | % visual injury POLCO Obs [10] [%] | % visual injury VIOAR Obs [11] [%] | % visual injury CIRAR Obs [12] [%] | % visual injury HORVW Obs (winter barley (HORVW)) [%] | % visual injury VIOTR Obs [13] [%] | % visual injury STEME Obs [14] [%] | % visual injury TRZAS Obs [15] [%] | % visual injury PAPRH Obs [16] [%] | % visual injury LAMPU Obs [17] [%] | % visual injury SINAR Obs [18] [%] | % visual injury CENCY Obs [19] [%] | other results |
| --- | --- | --- | --- | --- | --- | --- | --- | --- | --- | --- | --- | --- | --- | --- | --- | --- | --- | --- | --- | --- | --- |
| COP(=S)(OC)SCC(=O)N(c1ccc(Cl)cc1)C(C)C [Anilofos, S-[2-[(4-chlorophenyl)(1-methylethyl)amino]-2-oxoethyl] O,O-dimethyl phosphorodithioate] | 0 | 0 | 0 | 5 | 0 | 0 | 0 | 0 | 0 | 0 | 0 | 0 | 0 | 0 | 0 | 0 | 25 | 10 | 0 | 10 | % visual injury VERPE Obs [5]: 5%; % visual injury MATIN Obs [20]: 0%; % visual injury BRSNW Obs [21]: 5% |
| CC(C)N(C(=O)COc1nnc(C(F)(F)F)s1)c1ccc(F)cc1 [Flufenacet, N-(4-fluorophenyl)-N-(1-methylethyl)-2-[[5-(trifluoromethyl)-1,3,4-thiadiazol-2-yl]oxy]acetamide] |  |  |  |  |  |  |  |  |  |  |  |  |  |  |  |  |  |  |  |  | % visual injury Obs [22]: 15%; % visual injury Obs [23]: 5%; % visual injury Obs [24]: 3%; % visual injury Obs ([12]; CIRAR, Flufenacet 60 g/ha alone): 8%; % visual injury Obs ([13]; VIOTR, Flufenacet 60 g/ha alone): 0%; % visual injury Obs [25]: 5% |
| CCCOCCN(C(=O)CCl)c1c(CC)cccc1CC [Pretilachlor, 2-chloro-N-(2,6-diethylphenyl)-N-(2-propoxyethyl)acetamide] | 5 | 20 | 25 | 10 | 0 | 0 | 0 | 5 | 13 | 8 | 5 | 5 | 0 | 5 | 0 | 0 | 10 | 5 | 5 | 10 | % visual injury VERVE Obs [5]: 10%; % visual injury MATIN Obs [20]: 0%; % visual injury BRSNW Obs [21]: 5% |
